In ChEMBL document CHEMBL1152803, “Synthesis and vasodilator effects of rutaecarpine analogues which might be involved transient receptor potential vanilloid subfamily, member 1 (TRPV1)” (Bioorg Med Chem, 2009) one finds EC50, Emax and Activity data, which are given here for 24 compounds.

The source made the active and inactive calls. The calls are words filed in the database; no cut-off is given here.

By EC50 is commonly meant the midpoint of the concentration-response curve. What is called Emax is the greatest response seen or fitted, relative to the assay's reference.

For the first assay, the system named is Aorta. Briefly: Vasodilative activity against […] Sprague-Dawley rat thoracic aorta assessed as reduction in phenylepinephrine-induced contraction. It counts as functional, tissue-based.
Conditions: not given
On to `O=c1c2ccccc2nc2n1CCc1c-2[nH]c2c(Cl)cccc12`, for which the EC50 stood at 2.44 µM and the Emax was found to be 50.1%.

For `COc1ccc2[nH]c3c(c2c1)CCn1c-3c(O)c2ccccc2c1=O`, the EC50 is 5700 µM and the Emax was determined as 13.2%.

As for `COc1ccc2[nH]c3c(c2c1)CCn1c-3nc2ccc(Cl)cc2c1=O`, the EC50 is 2.11 µM and the Emax is 55.2%.

As for `c1ccc2c(c1)CN1CCc3c([nH]c4ccccc34)C1N2` (stereo not given) [RUTAECARPANE], the EC50 was 20.1 µM and the Emax was determined as 63.6%.

On to `O=c1c2c(Cl)cccc2nc2n1CCc1c-2[nH]c2ccccc12`, for which the EC50 is 16.8 µM and the Emax stood at 39.6%.

In the case of `COc1ccc2[nH]c3c(c2c1)CCN1C(=O)c2ccccc2OC31C` (stereo not given), the EC50 was 934 µM and the Emax came out at 31.6%.

In the case of `O=c1c2ccc(Cl)cc2nc2n1CCc1c-2[nH]c2ccccc12`, the concentration giving a half-maximal response (EC50) came to 21.1 µM and the Emax worked out at 36.6%.

Regarding `CC(=O)c1ccc2[nH]c3c(c2c1)CCn1c-3nc2ccccc2c1=O`, the EC50 was found to be 3.25 µM and the Emax is 68.2%.

In the case of `COc1ccc2[nH]c3c(c2c1)CCn1c-3nc2ccccc2c1=O`, the EC50 turned out to be 55.1 µM and the Emax was 42.6%.

On to `O=C1c2ccccc2NC2(C(F)(F)F)c3[nH]c4ccccc4c3CCN12` (stereo not given), for which the EC50 amounted to 7.86 µM and the Emax came to 42.5%.

With `COc1ccc2[nH]c3c(c2c1)CCn1c-3nc2cc(Cl)ccc2c1=O`, the EC50 amounted to 22.5 µM and the Emax amounted to 33.9%.

Take `O=c1c2ccccc2c(O)c2n1CCc1c-2[nH]c2ccccc12`: the EC50 was found to be 15400 µM and the Emax is 14.1%.

With `CC12Oc3ccccc3C(=O)N1CCc1c2[nH]c2ccccc12` (stereo not given), the EC50 amounted to 1590 µM and the Emax came to 29.9%.

For the compound `O=c1c2cc(Cl)ccc2nc2n1CCc1c-2[nH]c2ccccc12`, the EC50 was 32.3 µM and the Emax was 40.6%.

On to `COc1ccc2[nH]c3c(c2c1)CCn1c-3nc2ccc(Br)cc2c1=O`, for which the EC50 came to 9.4 µM and the Emax was determined as 40.3%.

As to `Cc1ccc2[nH]c3c(c2c1)CCn1c-3nc2ccccc2c1=O`, the EC50 is 1.24 µM and the Emax is 85.1%.

As to `O=c1c2ccccc2nc2n1CCc1c-2[nH]c2ccccc12` [RUTAECARPINE], the EC50 came to 1.33 µM and the Emax worked out at 79.3%.

As for `COc1ccc2[nH]c3c(c2c1)CCN1C(=O)c2ccccc2OC31` (stereo not given), the EC50 came to 63600 µM and the Emax was 13%.

As for `c1ccc2c(c1)CN1CCc3c([nH]c4ccccc34)C1=N2` [RUTAECARPENE], the EC50 is 25.1 µM and the Emax turned out to be 68.9%.

Take `Cc1cccc2c3c([nH]c12)-c1nc2ccccc2c(=O)n1CC3`: the EC50 amounted to 2.99 µM and the Emax came to 47%.

Regarding `COc1ccc2[nH]c3c(c2c1)CCn1c-3nc2cccc(Cl)c2c1=O`, the EC50 was found to be 19.7 µM and the Emax turned out to be 37.1%.

Take `COC(=O)C(Cc1c[nH]c2ccccc12)n1cnc2ccccc2c1=O` (stereo not given): the EC50 turned out to be 5460 µM and the Emax stood at 15.5%.

Consider `O=C1c2ccccc2OC2c3[nH]c4ccccc4c3CCN12` (stereo not given), for which the EC50 is 220 µM and the Emax amounted to 39.8%.

With `O=c1c2ccccc2nc2n1CCc1c-2[nH]c2c(Cl)cc(Cl)c(Cl)c12`, the EC50 was found to be 2.31 µM and the Emax worked out at 51%.

A further assay deals with Rattus norvegicus. Briefly: Antihypertensive activity against phenol-induced hypertension in iv dosed Sprague-Dawley rat assessed as decrease in mean arterial blood pressure. Format: functional, organism-based. The conditions noted are these: Artery.
As to `Cc1ccc2[nH]c3c(c2c1)CCn1c-3nc2ccccc2c1=O`, the Activity entry is “Dose-dependent effect”.

The test system of the next assay is Rattus norvegicus. Kind of assay: Antihypertensive activity against phenol-induced hypertension in Sprague-Dawley rat assessed as decrease in mean arterial pressure at 300 µg/kg, iv in presence of capsaicin administered 4 days before compound administration. Particulars: Artery.
As for `Cc1ccc2[nH]c3c(c2c1)CCn1c-3nc2ccccc2c1=O`, the result was inactive.
